Reference: patent US9102697B2, “Trioxacarcins and uses thereof” (President and Fellows of Harvard College, priority 2010, dated 2015)

Test system: self-complementary duplex 12-mer d(AATTACGTAATT) (SEQ ID NO: 1)
Assay: DNA alkylation detected by LC/MS
Type: biochemical
Conditions: for covalent DNA-small molecule complex formed (LC/MS chromatogram): oligonucleotide 100 μM, 1 equiv compound, pH 7 buffer; for products from alkylated oligonucleotide after piperidine treatment: 1.0 M piperidine, 30 minutes at 95 °C
Description: Next, we performed a set of experiments to determine whether the DC-45-A2 and dideoxy-DC-45-A2 complexes observed by DNA-gel electrophoresis were covalent or not. A liquid chromatography-mass spectrometry (LC/MS) method was developed for the detection of DNA oligonucleotides and covalent DNA-small molecule complexes. The mass spectrometer was used in a negative ion mode under conditions that had been optimized for the detection of single-stranded nucleic acids.
To solutions of the oligonucleotide d(AATTACGTAATT) (SEQ ID NO: 1) (100 μM) in pH 7 buffer were added, in three separate reaction vials, 1 equiv of DC-45-A2, 1 equiv of iso-DC-45-A2, or 1 equiv of dideoxy-DC-45-A2. After incubation for 24 h at 23° C., it was evident from the LC/MS chromatogram that a covalent DNA-small molecule complex had formed in both the DC-45-A2 and dideoxy-DC-45-A2 reaction mixtures but not in the iso-DC-45-A2 reaction mixture (FIG. 13). The alkylated single-stranded oligonucleotide eluted as a signal that was separate from the non-alkylated oligonucleotide. […] The absence of an iso-DC-45-A2 complex is consistent with the absence of reactivity of this compound towards the oligonucleotide under the alkylation conditions in the DNA-gel experiment described in the section above. The IC50 values of the three compounds in antiproliferative assays are also depicted in FIG. 13.
To test whether or not alkylation by DC-45-A2 and dideoxy-DC-45-A2 occurs at the N7 guanine site via the same epoxide opening mechanism observed for trioxacarcin A, we treated samples of alkylated oligonucleotide with piperidine to provide a product solution with a final concentration of 1.0 M in piperidine. […] This fragmentation is consistent with induced single strand cleavage of the type observed in the Maxam-Gilbert G-specific reaction that is associated with N7 guanine alkylation. In the present case, the guanine residue has been excised and the phosphates at the 3′ and 5′ positions have been eliminated to give the two fragment strands.
General Method: To a solution of dsDNA [ds(AATTACGTAATT) (SEQ ID NO: 1), 1.07 mM] in alkylation buffer (86.7 μL, see above for preparation of solutions) in a 1.7-mL centrifuge tube was added a solution of DC-45-A2 in DMSO (2.00 μL, 5 mM). The sample was votexed, then rotated end-over-end at 23° C. for 2 h. The sample was stored at 4° C. for 16 h. The sample was diluted to a concentration of 5 μM of dsDNA. A 10 μL sample of the diluted solution was injected into a short oligonucleotide column (gradient elution with […] TEAB buffer and methanol, flow rate 150 μL/min) and the column output was monitored by mass spectrometry in a negative ionization mode. The doubly deionized DC-45-A2-alkylated single-stranded DNA oligonucleotide (mass/charge=2079.4) was detected at 9.32 min.
To five separate solutions (designated as vials 1-5) of duplex DNA oligonucleotide d(AATTACGTAATT) (SEQ ID NO: 1) (0.72 mM [concentration of the DNA duplex] in alkylation buffer [see paragraph above for preparation], 13.9 μL, 10 nmol, 1 equiv) in alkylation buffer (84.1 μL) were added, respectively, DC-45-A2 (5.0 mM solution in dimethylsulfoxide, 2.0 μL, 10 nmol, 1.0 equiv, vials 1 and 2), iso-DC-45-A2 (5.0 mM solution in dimethylsulfoxide, 2.0 μL, 10 nmol, 1.0 equiv, vial 3), and dideoxy-DC-45-A2 (5.0 mM solution in dimethylsulfoxide, 2.0 μL, 10 nmol, 1.0 equiv, vials 4 and 5). The samples were vortexed, then rotated end-over-end at 23° C. After 23 h 30 min, vials 2 and 5 were diluted with piperidine (10 μL) and placed in a heating block at 95° C. After 30 min, vials 2 and 5 were cooled by centrifugation for 30 seconds (VWR Labnet C-1200 Minicentrifuge). After a total reaction time of 24 h, a 5-μL aliquot was removed from each of the five reaction mixtures. Each aliquot was diluted with alkylation buffer (95 μL, see above for preparation). […]

| Molecule | covalent DNA-small molecule complex formed (LC/MS chromatogram) (24 h at 23 °C) | products from alkylated oligonucleotide after piperidine treatment | relative abundance of the covalent complex (24 h at 23 °C, compared with DC-45-A2 complex) |
| --- | --- | --- | --- |
| COc1c2c(c(O)c3c4c(c(C)cc13)[C@H]1O[C@]3(C(OC)OC)O[C@H]1[C@](O)(O4)[C@@]31CO1)C(=O)[C@@H](O)C[C@@H]2O [iso-DC-45-A2, 11,12,13,15-tetraepi-DC-45-A2] | not |  |  |
| DC-45-A2 | had formed | pTAATT and AATTACp |  |
| Dideoxy-DC-45-A2 | had formed | pTAATT and AATTACp | greater relative abundance |
